Experimental data reported in ChEMBL document CHEMBL1144567, “Linker-modified triamine-linked acridine dimers: synthesis and cytotoxicity properties in vitro and in vivo” (Bioorg Med Chem, 2007).
One block for each molecule: values may come before it.

Tests used:
COLO 205 [1] = experiment: Cytotoxicity against human COLO205 cells after 72 hrs by MTT assay; format: cell-based; conditions: COLO 205, 72 h
[2] = Cytotoxicity against human HA22T cells after 72 hrs by MTT assay; format: cell-based
[3] = Cytotoxicity against SKBR3 cells after 72 hrs by MTT assay; format: cell-based; conditions: Homo sapiens, SK-BR-3, 72 h
MOLT-4 = experiment: Cytotoxicity against MOLT4 cells after 72 hrs by MTT assay; conditions: Homo sapiens, MOLT-4, 72 h
Nucleic Acid = experiment: Binding affinity to Escherichia coli JM83 pUC19 DNA assessed as DNA intercalation assay; format: nucleic-acid assay
COLO 205 [4] = experiment: Antitumor activity against human COLO205 cells implanted in SCID mouse at 10 mg/kg injected into tail vein; format: functional; conditions: read-out: TGI
[5] = Toxicity in ICR mouse; format: organism-based; conditions: in vivo
COLO 205 [6] = experiment: Antitumor activity against human COLO205 cells implanted in SCID mouse at 22.5 mg/kg injected into tail vein; format: functional; conditions: read-out: TGI

Structure (SMILES): COc1cccc(CN(CCCCNc2c3ccc(Cl)cc3nc3ccc(OC)cc23)CCCNc2c3ccc(Cl)cc3nc3ccc(OC)cc23)c1
IC50 (COLO 205 [1]): 250 nM
IC50 [2]: 5660 nM
IC50 [3]: 1300 nM
IC50 (MOLT-4): 710 nM

Structure (SMILES): COc1ccc2nc3cc(Cl)ccc3c(NCCCCN(CCCNc3c4ccc(Cl)cc4nc4ccc(OC)cc34)Cc3ccsc3)c2c1
IC50 (COLO 205 [1]): 250 nM
IC50 [2]: 3590 nM
IC50 [3]: 990 nM
IC50 (MOLT-4): < 10 nM

SC50 (Nucleic Acid): 2 µM
Structure (SMILES): COc1ccc2nc3cc(Cl)ccc3c(NCCCN(CCCNc3c4ccc(Cl)cc4nc4ccc(OC)cc34)Cc3ccco3)c2c1
IC50 (COLO 205 [1]): 240 nM
IC50 [2]: 610 nM
IC50 [3]: 840 nM
IC50 (MOLT-4): < 10 nM

SC50 (Nucleic Acid): 4 µM
Structure (SMILES): COc1ccc2nc3cc(Cl)ccc3c(NCCCCNCCCNc3c4ccc(Cl)cc4nc4ccc(OC)cc34)c2c1
IC50 (COLO 205 [1]): 130 nM
IC50 [2]: 330 nM
IC50 [3]: 50 nM
IC50 (MOLT-4): < 20 nM

Structure (SMILES): COc1ccc2nc3cc(Cl)ccc3c(NCCCCN(CCCNc3c4ccc(Cl)cc4nc4ccc(OC)cc34)Cc3cccs3)c2c1
IC50 (COLO 205 [1]): 500 nM
IC50 [2]: 440 nM
IC50 [3]: 680 nM
IC50 (MOLT-4): 40 nM

Structure (SMILES): COc1ccc2nc3cc(Cl)ccc3c(NCCCNCCCNc3c4ccc(Cl)cc4nc4ccc(OC)cc34)c2c1
inhibition in vivo at 10 mg/kg (COLO 205 [4]): 80%
MTD [5]: 10 mg/kg
IC50 (COLO 205 [1]): 410 nM
IC50 [2]: 330 nM
IC50 [3]: 770 nM
IC50 (MOLT-4): < 20 nM
SC50 (Nucleic Acid): 4 µM

Structure (SMILES): COc1ccc2nc3cc(Cl)ccc3c(NCCCN(C)CCCNc3c4ccc(Cl)cc4nc4ccc(OC)cc34)c2c1
MTD [5]: 22.5 mg/kg
IC50 (COLO 205 [1]): 160 nM
IC50 [2]: 620 nM
IC50 [3]: 700 nM
IC50 (MOLT-4): < 20 nM
inhibition in vivo at 22.5 mg/kg (COLO 205 [6]): 2%

Structure (SMILES): CCCCCCN(CCCNc1c2ccc(Cl)cc2nc2ccc(OC)cc12)CCCNc1c2ccc(Cl)cc2nc2ccc(OC)cc12
IC50 (COLO 205 [1]): 890 nM
IC50 [2]: 6950 nM
IC50 [3]: 6140 nM
IC50 (MOLT-4): 90 nM

Structure (SMILES): CCN(CCCNc1c2ccc(Cl)cc2nc2ccc(OC)cc12)CCCNc1c2ccc(Cl)cc2nc2ccc(OC)cc12
MTD [5]: 30 mg/kg
IC50 (COLO 205 [1]): 90 nM
IC50 [2]: 5330 nM
IC50 [3]: 7310 nM
IC50 (MOLT-4): < 20 nM

SC50 (Nucleic Acid): > 20 µM
Structure (SMILES): COc1ccc2nc3cc(Cl)ccc3c(NCCCN(CCCNc3c4ccc(Cl)cc4nc4ccc(OC)cc34)Cc3ccc(Br)s3)c2c1
IC50 (COLO 205 [1]): 850 nM
IC50 [2]: 1150 nM
IC50 [3]: 5800 nM
IC50 (MOLT-4): < 10 nM

Structure (SMILES): COc1ccc2nc3cc(Cl)ccc3c(NCCCN(CCCNc3c4ccc(Cl)cc4nc4ccc(OC)cc34)Cc3cc(OC)c(OC)c(OC)c3)c2c1
IC50 (COLO 205 [1]): 4500 nM
IC50 [2]: 4420 nM
IC50 [3]: 5040 nM
IC50 (MOLT-4): 60 nM

SC50 (Nucleic Acid): 2 µM
Structure (SMILES): CCCN(CCCNc1c2ccc(Cl)cc2nc2ccc(OC)cc12)CCCNc1c2ccc(Cl)cc2nc2ccc(OC)cc12
IC50 (COLO 205 [1]): 1460 nM
IC50 [2]: 5980 nM
IC50 [3]: 5780 nM
IC50 (MOLT-4): < 20 nM

Structure (SMILES): COc1ccc2nc3cc(Cl)ccc3c(NCCCN(CCCNc3c4ccc(Cl)cc4nc4ccc(OC)cc34)Cc3ccc(Cl)cc3)c2c1
IC50 (COLO 205 [1]): 200 nM
IC50 [2]: 580 nM
IC50 [3]: 530 nM
IC50 (MOLT-4): < 10 nM

Structure (SMILES): COc1ccc2nc3cc(Cl)ccc3c(NCCCN(CCCNc3c4ccc(Cl)cc4nc4ccc(OC)cc34)CC3OC(C)(C)OC3C3COC(C)(C)O3)c2c1 (stereo not drawn)
IC50 (COLO 205 [1]): 2190 nM
IC50 [2]: 4680 nM
IC50 [3]: 4730 nM
IC50 (MOLT-4): 60 nM

SC50 (Nucleic Acid): 2 µM
Structure (SMILES): COc1ccc2nc3cc(Cl)ccc3c(NCCCN(CCCNc3c4ccc(Cl)cc4nc4ccc(OC)cc34)Cc3cccc(OC)c3OC)c2c1
IC50 (COLO 205 [1]): 640 nM
IC50 [2]: 620 nM
IC50 [3]: 790 nM
IC50 (MOLT-4): 10 nM

Structure (SMILES): COc1ccc2nc3cc(Cl)ccc3c(NCCCCN(CCCNc3c4ccc(Cl)cc4nc4ccc(OC)cc34)Cc3ccoc3)c2c1
IC50 (COLO 205 [1]): 320 nM
IC50 [2]: 440 nM
IC50 [3]: 710 nM
IC50 (MOLT-4): 30 nM

Structure (SMILES): COc1ccc2nc3cc(Cl)ccc3c(NCCCN(CCCNc3c4ccc(Cl)cc4nc4ccc(OC)cc34)Cc3ccc(F)cc3F)c2c1
IC50 (COLO 205 [1]): 770 nM
IC50 [2]: 230 nM
IC50 [3]: 780 nM
IC50 (MOLT-4): < 10 nM

Structure (SMILES): COc1ccc(CN(CCCCNc2c3ccc(Cl)cc3nc3ccc(OC)cc23)CCCNc2c3ccc(Cl)cc3nc3ccc(OC)cc23)cc1
IC50 (COLO 205 [1]): 390 nM
IC50 [2]: 5450 nM
IC50 [3]: 860 nM
IC50 (MOLT-4): 710 nM

Structure (SMILES): COc1ccc2nc3cc(Cl)ccc3c(NCCCCN(CCCNc3c4ccc(Cl)cc4nc4ccc(OC)cc34)Cc3ccco3)c2c1
IC50 (COLO 205 [1]): 370 nM
IC50 [2]: 4730 nM
IC50 [3]: 5070 nM
IC50 (MOLT-4): 60 nM

Structure (SMILES): COc1ccc2nc3cc(Cl)ccc3c(NCCCN(CCCNc3c4ccc(Cl)cc4nc4ccc(OC)cc34)Cc3ccoc3)c2c1
inhibition in vivo at 10 mg/kg (COLO 205 [4]): 24%
MTD [5]: 10 mg/kg
IC50 (COLO 205 [1]): 460 nM
IC50 [2]: 360 nM
IC50 [3]: 690 nM
IC50 (MOLT-4): 10 nM
SC50 (Nucleic Acid): 2 µM

SC50 (Nucleic Acid): 2 µM
Structure (SMILES): COc1ccc2nc3cc(Cl)ccc3c(NCCCN(CCCNc3c4ccc(Cl)cc4nc4ccc(OC)cc34)Cc3ccccc3OC)c2c1
IC50 (COLO 205 [1]): 3610 nM
IC50 [2]: 930 nM
IC50 [3]: 710 nM
IC50 (MOLT-4): < 10 nM

SC50 (Nucleic Acid): 2 µM
Structure (SMILES): COc1ccc2nc3cc(Cl)ccc3c(NCCCN(CCCNc3c4ccc(Cl)cc4nc4ccc(OC)cc34)Cc3ccccc3)c2c1
IC50 (COLO 205 [1]): 750 nM
IC50 [2]: 700 nM
IC50 [3]: 700 nM
IC50 (MOLT-4): 700 nM

Structure (SMILES): COc1ccc2nc3cc(Cl)ccc3c(NCCCN(CCCNc3c4ccc(Cl)cc4nc4ccc(OC)cc34)CCc3ccccc3)c2c1
IC50 (COLO 205 [1]): 700 nM
IC50 [2]: 650 nM
IC50 [3]: 680 nM
IC50 (MOLT-4): < 10 nM

Structure (SMILES): COc1ccc2nc3cc(Cl)ccc3c(NCCCN(CCCNc3c4ccc(Cl)cc4nc4ccc(OC)cc34)CC(O)CO)c2c1 (stereo not drawn)
IC50 (COLO 205 [1]): 130 nM
IC50 [2]: 1720 nM
IC50 [3]: 1290 nM
IC50 (MOLT-4): < 10 nM

Structure (SMILES): COc1ccc2nc3cc(Cl)ccc3c(NCCCN(CCCNc3c4ccc(Cl)cc4nc4ccc(OC)cc34)Cc3ccsc3)c2c1
IC50 (COLO 205 [1]): 560 nM
IC50 [2]: 1410 nM
IC50 [3]: 1170 nM
IC50 (MOLT-4): 70 nM

Structure (SMILES): COc1ccc2nc3cc(Cl)ccc3c(NCCCN(CCCNc3c4ccc(Cl)cc4nc4ccc(OC)cc34)Cc3ccccn3)c2c1
inhibition in vivo at 10 mg/kg (COLO 205 [4]): 0%
MTD [5]: 10 mg/kg
IC50 (COLO 205 [1]): 10 nM
IC50 [2]: 3970 nM
IC50 [3]: 720 nM
IC50 (MOLT-4): < 10 nM
SC50 (Nucleic Acid): 2 µM

Structure (SMILES): CCc1ccc(CN(CCCNc2c3ccc(Cl)cc3nc3ccc(OC)cc23)CCCNc2c3ccc(Cl)cc3nc3ccc(OC)cc23)o1
IC50 (COLO 205 [1]): 2560 nM
IC50 [2]: 3320 nM
IC50 [3]: 5250 nM
IC50 (MOLT-4): 100 nM

SC50 (Nucleic Acid): 2 µM
Structure (SMILES): COc1ccc2nc3cc(Cl)ccc3c(NCCCN(CCCNc3c4ccc(Cl)cc4nc4ccc(OC)cc34)Cc3sccc3C)c2c1
IC50 (COLO 205 [1]): 10 nM
IC50 [2]: 60 nM
IC50 [3]: 70 nM
IC50 (MOLT-4): < 10 nM

SC50 (Nucleic Acid): > 20 µM
Structure (SMILES): COc1ccc2nc3cc(Cl)ccc3c(NCCCN(CCCNc3c4ccc(Cl)cc4nc4ccc(OC)cc34)Cc3ccc(Br)o3)c2c1
IC50 (COLO 205 [1]): 410 nM
IC50 [2]: 1110 nM
IC50 [3]: 4240 nM
IC50 (MOLT-4): < 10 nM

SC50 (Nucleic Acid): 10 µM
Structure (SMILES): COc1cccc2c1C(=O)c1c(O)c3c(c(O)c1C2=O)C[C@@](O)(C(=O)CO)C[C@@H]3O[C@H]1C[C@H](N)[C@H](O)[C@H](C)O1 [DOXORUBICIN]
IC50 (COLO 205 [1]): 260 nM
IC50 [2]: 310 nM
IC50 [3]: 290 nM

SC50 (Nucleic Acid): 2 µM
Structure (SMILES): COc1cccc(CN(CCCNc2c3ccc(Cl)cc3nc3ccc(OC)cc23)CCCNc2c3ccc(Cl)cc3nc3ccc(OC)cc23)c1
IC50 (COLO 205 [1]): 350 nM
IC50 [2]: 420 nM
IC50 [3]: 680 nM
IC50 (MOLT-4): < 10 nM

Structure (SMILES): COc1ccc2nc3cc(Cl)ccc3c(NCCCN(CCCNc3c4ccc(Cl)cc4nc4ccc(OC)cc34)CC3COC(C)(C)O3)c2c1 (stereo not drawn)
IC50 (COLO 205 [1]): 5600 nM
IC50 [2]: 3430 nM
IC50 [3]: 6610 nM
IC50 (MOLT-4): < 10 nM

SC50 (Nucleic Acid): 2 µM
Structure (SMILES): COc1ccc2nc3cc(Cl)ccc3c(NCCCN(CCCNc3c4ccc(Cl)cc4nc4ccc(OC)cc34)CC3CC3)c2c1
IC50 (COLO 205 [1]): 1270 nM
IC50 [2]: 480 nM
IC50 [3]: 820 nM
IC50 (MOLT-4): < 10 nM

SC50 (Nucleic Acid): 2 µM
Structure (SMILES): COc1ccc2nc3cc(Cl)ccc3c(NCCCCN(CCCNc3c4ccc(Cl)cc4nc4ccc(OC)cc34)CC3CC3)c2c1
IC50 (COLO 205 [1]): 10 nM
IC50 [2]: 510 nM
IC50 [3]: 720 nM
IC50 (MOLT-4): < 10 nM

Structure (SMILES): COc1ccc2nc3cc(Cl)ccc3c(NCCCN(CCCNc3c4ccc(Cl)cc4nc4ccc(OC)cc34)Cc3cc(Br)cs3)c2c1
IC50 (COLO 205 [1]): 720 nM
IC50 [2]: 840 nM
IC50 [3]: 700 nM
IC50 (MOLT-4): 60 nM

Structure (SMILES): COc1ccc2nc3cc(Cl)ccc3c(NCCCN(CCCNc3c4ccc(Cl)cc4nc4ccc(OC)cc34)Cc3cccnc3)c2c1
IC50 (COLO 205 [1]): 500 nM
IC50 [2]: 740 nM
IC50 [3]: 640 nM
IC50 (MOLT-4): < 10 nM
